This passage reports IC50 results from patent US10532986B2, “Cyclic compound acting as PDE4 inhibitor” (MEDSHINE DISCOVERY INC., priority 2016, dated 2020).

The target in this experiment is T1, Recombinant human PDE4B (Homo sapiens, UniProt Q07343).
T1 construct: amino acid 305-end; GST (N); made in house; host or cells: Sf9 insect cells (baculovirus)
Put plainly: Inhibitory activity of the compounds against PDE 4B (fluorescence polarization, Transcreener AMP2/GMP2). The experiment is classed as biochemical. The note with it: recombinant human PDE4B (aa 305-end, GST tag); 1 μM cAMP; 1 hour at room temperature. The procedure: Inhibitory activity of the compounds against PDE 4B
The assay is based on the fluorescence polarization measuring AMP/GMP production as a result of the enzyme activity by displacement of Tracer binding to the AMP/GMP antibody.
10 mM Tris-HCl (pH 7.5), 5 mM MgCl2, 0.01% Brij 35, 1 mM DTT and 1% DMSO.
Recombinant human PDE4B (Gene accession number: NM_002600; amino acid 305-end) was expressed by baculovirus in Sf9 insect cells using an N-terminal GST tag. MW=78 kDa.
Transcreener® AMP^2/GMP^2 antibody and AMP^2/GMP^2 AlexaFluor 633 tracer
i) Recombinant human PDE4B and the enzyme substrate (1 μM cAMP) were dissolved in the newly-prepared buffer solution, respectively.
ii) The PDE4B buffer solution defined as above was transferred into the reaction wells.
iii) The compound which was dissolved in 100% DMSO was added to the reaction wells of the PDE4B buffer solution by Acoustic technology (Echo550; nanoliter range) and incubated at room temperature for 10 minutes.
iv) The enzymatic buffer solution was then added to the reaction wells defined as above to initiate the reaction.
v) The reaction was incubated at room temperature for 1 hour.
vi) The reaction was terminated by adding detecting mixture (Transcreener® AMP^2/GMP^2 antibody and AMP^2/GMP^2 AlexaFluor 633 tracer) and incubated for 90 minutes with gentle mixing. The measurement range of fluorescence polarization is Ex/Em=620/688.
The fluorescence polarization signal was converted into nM based on the AMP/GMP standard curve and the percent enzyme activity relative to DMSO calculated by Excel. GraphPad Prism was used to plot the curves (Drawing Medicine Icon)
(In fluorescence polarisation assays a small probe gives low polarisation when free and higher when bound to something large.)

T1 sequence (Q07343 305-736 limits assumed): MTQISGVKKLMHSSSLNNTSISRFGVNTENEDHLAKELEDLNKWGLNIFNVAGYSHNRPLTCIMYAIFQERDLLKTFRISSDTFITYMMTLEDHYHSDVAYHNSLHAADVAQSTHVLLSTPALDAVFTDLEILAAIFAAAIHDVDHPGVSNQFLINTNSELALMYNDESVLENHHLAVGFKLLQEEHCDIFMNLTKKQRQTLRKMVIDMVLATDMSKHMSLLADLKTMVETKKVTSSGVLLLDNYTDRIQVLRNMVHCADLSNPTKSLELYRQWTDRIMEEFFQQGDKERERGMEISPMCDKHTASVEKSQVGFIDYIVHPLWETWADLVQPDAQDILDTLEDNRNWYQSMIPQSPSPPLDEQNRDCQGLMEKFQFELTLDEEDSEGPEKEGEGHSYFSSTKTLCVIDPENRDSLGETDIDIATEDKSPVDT

The term IC50 denotes the concentration needed to halve the response being measured. Regarding `CCOc1cc([C@@H](CS(C)(=O)=O)n2c(=O)[nH]c3cc(Br)cc(F)c32)ccc1OC` [WX001], the IC50 turned out to be 3.68 nM.

On to `CCOc1cc([C@@H](CS(C)(=O)=O)n2c(=O)[nH]c3cc(C(F)(F)F)ccc32)ccc1OC` [WX002], for which the IC50 came to 6.27 nM. Regarding `CCOc1cc([C@@H](CS(C)(=O)=O)n2c(=O)[nH]c3cc(Cl)ccc32)ccc1OC` [WX003], the IC50 was determined as 2.22 nM. In the case of `CCOc1cc([C@@H](CS(C)(=O)=O)n2c(=O)[nH]c3cc(F)ccc32)ccc1OC` [WX004], the IC50 came to 11.5 nM. In the case of `CCOc1cc([C@@H](CS(C)(=O)=O)n2c(=O)[nH]c3cc(F)cc(F)c32)ccc1OC` [WX005], the IC50 was 92.4 nM. `CCOc1cc([C@@H](CS(C)(=O)=O)n2c(=O)[nH]c3cc(C(F)(F)F)cc(F)c32)ccc1OC` [WX006]: the IC50 stood at 25.7 nM. As for `CCOc1cc([C@@H](CS(C)(=O)=O)n2c(=O)[nH]c3c(Br)cccc32)ccc1OC` [WX007], the figure is 9.2 nM.

Take `CCOc1cc([C@@H](CS(C)(=O)=O)n2c(=O)[nH]c3c(Cl)cccc32)ccc1OC` [WX008]: the IC50 came to 22.3 nM. As for `CCOc1cc([C@@H](CS(C)(=O)=O)n2c(=O)[nH]c3cc(Br)ccc32)ccc1OC` [WX009], the IC50 is 6.29 nM. With `CCOc1cc([C@@H](CS(C)(=O)=O)n2c(=O)[nH]c3ccccc32)ccc1OC` [WX010], the IC50 was 19.5 nM. In the case of `CCOc1cc([C@@H](CS(C)(=O)=O)n2c(=O)[nH]c3cc(-c4ccccc4F)ccc32)ccc1OC` [WX011], the IC50 came to 0.526 nM. For the compound `CCOc1cc([C@@H](CS(C)(=O)=O)n2c(=O)[nH]c3cc(-c4cccc(F)c4)ccc32)ccc1OC` [WX012], the IC50 is 2.18 nM.

In the case of `CCOc1cc([C@@H](CS(C)(=O)=O)n2c(=O)[nH]c3cc(-c4ccc(F)cc4)ccc32)ccc1OC` [WX013], the IC50 was found to be 6.11 nM. Regarding `CCOc1cc([C@@H](CS(C)(=O)=O)n2c(=O)[nH]c3cc(-c4ccccc4C)ccc32)ccc1OC` [WX014], the IC50 came out at 0.606 nM. With `CCOc1cc([C@@H](CS(C)(=O)=O)n2c(=O)[nH]c3cc(-c4ccccc4Cl)ccc32)ccc1OC` [WX015], the IC50 came to 0.676 nM. For the compound `CCOc1cc([C@@H](CS(C)(=O)=O)n2c(=O)[nH]c3cc(-c4ccccc4OC)ccc32)ccc1OC` [WX016], the IC50 is less than 0.5 nM. Consider `CCOc1cc([C@@H](CS(C)(=O)=O)n2c(=O)[nH]c3cc(-c4ccccc4C(F)(F)F)ccc32)ccc1OC` [WX017], for which the IC50 was less than 0.5 nM. For `CCOc1cc([C@@H](CS(C)(=O)=O)n2c(=O)[nH]c3cc(-c4ccccc4C(C)C)ccc32)ccc1OC` [WX018], the IC50 is less than 0.5 nM. Turning to `CCOc1cc([C@@H](CS(C)(=O)=O)n2c(=O)[nH]c3cc(-c4ccccc4CC)ccc32)ccc1OC` [WX019], the IC50 was less than 0.5 nM. As for `CCOc1cc([C@@H](CS(C)(=O)=O)n2c(=O)n(C3CC3)c3cc(Cl)ccc32)ccc1OC` [WX020], the IC50 is 12.6 nM. As for `CCOc1cc([C@@H](CS(C)(=O)=O)n2c(=O)n(C3CC3)c3cc(F)ccc32)ccc1OC` [WX021], the figure is 64.4 nM; as for `CCOc1cc([C@@H](CS(C)(=O)=O)n2c(=O)n(C3CC3)c3cc(C(F)(F)F)ccc32)ccc1OC` [WX022], 39.5 nM; as for `CCOc1cc([C@@H](CS(C)(=O)=O)n2c(=O)n(C3CC3)c3cc(-c4ccccc4F)ccc32)ccc1OC` [WX023], 1.89 nM. Take `CCOc1cc([C@@H](CS(C)(=O)=O)n2c(=O)[nH]c3cc(-c4ccccc4OCC)ccc32)ccc1OC` [WX024]: the half-maximal inhibitory concentration (IC50) was less than 0.5 nM.

As to `CCOc1cc([C@@H](CS(C)(=O)=O)n2c(=O)[nH]c3cc(-c4ncccc4F)ccc32)ccc1OC` [WX025], the IC50 came out at 1.42 nM. Consider `CCOc1cc([C@@H](CS(C)(=O)=O)n2c(=O)[nH]c3cc(-c4nccnc4C)ccc32)ccc1OC` [WX026], for which the IC50 was found to be 8.44 nM. As for `CCOc1cc([C@@H](CS(C)(=O)=O)n2c(=O)[nH]c3cc(-c4nnccc4C)ccc32)ccc1OC` [WX027], the IC50 came out at 17.8 nM. As to `CCOc1cc([C@@H](CS(C)(=O)=O)n2c(=O)[nH]c3cc(-c4ccccc4C#N)ccc32)ccc1OC` [WX028], the IC50 is less than 0.5 nM.

On to `CCOc1cc([C@@H](CS(C)(=O)=O)n2c(=O)[nH]c3cc(-c4nccnc4N(C)C)ccc32)ccc1OC` [WX029], for which the IC50 was less than 0.5 nM.

On to `CCOc1cc([C@@H](CS(C)(=O)=O)n2c(=O)[nH]c3cc(-c4nccnc4C4CC4)ccc32)ccc1OC` [WX030], for which the IC50 turned out to be 1.31 nM. For `CCOC(=O)c1ccc2c(c1)[nH]c(=O)n2[C@H](CS(C)(=O)=O)c1ccc(OC)c(OCC)c1` [WX031], the IC50 is 3.3 nM. On to `CCOc1cc([C@@H](CS(C)(=O)=O)n2c(=O)[nH]c3cc(C(=O)OC(C)C)ccc32)ccc1OC` [WX032], for which the IC50 amounted to 2.05 nM. For the compound `CCOc1cc([C@@H](CS(C)(=O)=O)n2c(=O)[nH]c3cc(C(=O)OCC(F)(F)F)ccc32)ccc1OC` [WX033], the IC50 amounted to 1.1 nM.

With `CCOc1cc([C@@H](CS(C)(=O)=O)n2c(=O)[nH]c3cc(C(=O)O)ccc32)ccc1OC` [WX034], the IC50 stood at 22.4 nM. For the compound `CCOc1cc([C@@H](CS(C)(=O)=O)n2c(=O)[nH]c3cc(C(=O)CC)ccc32)ccc1OC` [WX035], the IC50 is 8.3 nM. The same measure for `CCOc1cc([C@@H](CS(C)(=O)=O)n2c(=O)n(CC(F)F)c3cc(Cl)ccc32)ccc1OC` [WX036]: 9.12 nM; for `CCOc1cc([C@@H](CS(C)(=O)=O)n2c(=O)n(CC(F)(F)F)c3cc(Cl)ccc32)ccc1OC` [WX037]: 10.8 nM. Regarding `CCOc1cc([C@@H](CS(C)(=O)=O)n2c(=O)n(C)c3cc(Cl)ccc32)ccc1OC` [WX038], the IC50 worked out at 7.99 nM. Turning to `CCOc1cc([C@@H](CS(C)(=O)=O)n2c(=O)n(CC)c3cc(Cl)ccc32)ccc1OC` [WX039], the IC50 stood at 9.96 nM. The same measure for `CCOc1cc([C@@H](CS(C)(=O)=O)n2c(=O)n(CC3CC3)c3cc(Cl)ccc32)ccc1OC` [WX040]: 7.54 nM. As for `CCOc1cc([C@@H](CS(C)(=O)=O)n2c(=O)n(CC3CCC3)c3cc(Cl)ccc32)ccc1OC` [WX041], the figure is 11.9 nM; as for `CCOc1cc([C@@H](CS(C)(=O)=O)n2c(=O)n(CCOC)c3cc(Cl)ccc32)ccc1OC` [WX042], 6.83 nM. The same measure for `CCOc1cc([C@@H](CS(C)(=O)=O)n2c(=O)n(CCO)c3cc(Cl)ccc32)ccc1OC` [WX043]: 4.5 nM; for `CCOc1cc([C@@H](CS(C)(=O)=O)n2c(=O)n(C(C)C)c3cc(Cl)ccc32)ccc1OC` [WX044]: 5.12 nM. As to `CCOc1cc([C@@H](CS(C)(=O)=O)n2c(=O)n(CC#N)c3cc(Cl)ccc32)ccc1OC` [WX045], the IC50 was determined as 3.56 nM. With `CCOc1cc([C@@H](CS(C)(=O)=O)n2c(=O)n(CC(F)F)c3cc(F)ccc32)ccc1OC` [WX046], the IC50 turned out to be 10.1 nM. With `CCOc1cc([C@@H](CS(C)(=O)=O)n2c(=O)n(CC(F)(F)F)c3cc(F)ccc32)ccc1OC` [WX047], the IC50 was 44.9 nM. The same measure for `CCOc1cc([C@@H](CS(C)(=O)=O)n2c(=O)n(C)c3cc(F)ccc32)ccc1OC` [WX048]: 57.8 nM; for `CCOc1cc([C@@H](CS(C)(=O)=O)n2c(=O)n(CC#N)c3cc(F)ccc32)ccc1OC` [WX049]: 11.4 nM. In the case of `CCOc1cc([C@@H](CS(C)(=O)=O)n2c(=O)n(CCO)c3cc(F)ccc32)ccc1OC` [WX050], the IC50 stood at 30.6 nM. As to `CCOc1cc([C@@H](CS(C)(=O)=O)n2c(=O)n(CC(F)F)c3cc(C(F)(F)F)ccc32)ccc1OC` [WX051], the IC50 is 26.9 nM.

Consider `CCOc1cc([C@@H](CS(C)(=O)=O)n2c(=O)n(CC(F)(F)F)c3cc(C(F)(F)F)ccc32)ccc1OC` [WX052], for which the IC50 is 13.7 nM. In the case of `CCOc1cc([C@@H](CS(C)(=O)=O)n2c(=O)n(C)c3cc(C(F)(F)F)ccc32)ccc1OC` [WX053], the IC50 came to 26.4 nM.

`CCOc1cc([C@@H](CS(C)(=O)=O)n2c(=O)n(CC)c3cc(C(F)(F)F)ccc32)ccc1OC` [WX054]: the IC50 is 13.2 nM. As for `CCOc1cc([C@@H](CS(C)(=O)=O)n2c(=O)n(CC#N)c3cc(C(F)(F)F)ccc32)ccc1OC` [WX055], the IC50 is 21.2 nM. The same measure for `CCOc1cc([C@@H](CS(C)(=O)=O)n2c(=O)n(CCO)c3cc(C(F)(F)F)ccc32)ccc1OC` [WX056]: 4.28 nM. `CCOc1cc([C@@H](CS(C)(=O)=O)n2c(=O)n(C)c3cc(F)cc(F)c32)ccc1OC` [WX057]: the IC50 stood at 99.6 nM. The same measure for `CCOc1cc([C@@H](CS(C)(=O)=O)n2c(=O)n(CC#N)c3cc(F)cc(F)c32)ccc1OC` [WX058]: 8.46 nM; for `CCOc1cc([C@@H](CS(C)(=O)=O)n2c(=O)n(CCO)c3cc(F)cc(F)c32)ccc1OC` [WX059]: 68.3 nM. The same measure for `CCOc1cc([C@@H](CS(C)(=O)=O)n2c(=O)n(Cc3ccccc3F)c3cc(C(F)(F)F)cc(F)c32)ccc1OC` [WX060]: 34.4 nM; for `CCOc1cc([C@@H](CS(C)(=O)=O)n2c(=O)n(CC(F)F)c3c(Cl)cccc32)ccc1OC` [WX061]: 39 nM.
